Earlier results as cited in patent publication US20220047856A1, “HYDROGEL FOR IN-VIVO DIRECTIONAL RELEASE OF MEDICATION” (UMC Utrecht Holding B.V., priority 2018, published 2022).

Settings: local anaesthetic, conventional bupivacaine

CCCCN1CCCCC1C(=O)Nc1c(C)cccc1C (stereo not shown) [Bupi, Bupivacaine]
duration of its effect: approx. 8 hours
